Measurements from patent US7709482B2, “Polycyclic heteroaryl substituted triazoles useful as Axl inhibitors” (Rigel Pharmaceuticals, Inc., priority 2006, dated 2010).
pIC50: −log10 of the molar value.

Biological target: T1, Axl (Homo sapiens, UniProt P30530)
T1 construct: endogenous in cells; host or cells: HeLa cells
T1 sequence (P30530 26-894): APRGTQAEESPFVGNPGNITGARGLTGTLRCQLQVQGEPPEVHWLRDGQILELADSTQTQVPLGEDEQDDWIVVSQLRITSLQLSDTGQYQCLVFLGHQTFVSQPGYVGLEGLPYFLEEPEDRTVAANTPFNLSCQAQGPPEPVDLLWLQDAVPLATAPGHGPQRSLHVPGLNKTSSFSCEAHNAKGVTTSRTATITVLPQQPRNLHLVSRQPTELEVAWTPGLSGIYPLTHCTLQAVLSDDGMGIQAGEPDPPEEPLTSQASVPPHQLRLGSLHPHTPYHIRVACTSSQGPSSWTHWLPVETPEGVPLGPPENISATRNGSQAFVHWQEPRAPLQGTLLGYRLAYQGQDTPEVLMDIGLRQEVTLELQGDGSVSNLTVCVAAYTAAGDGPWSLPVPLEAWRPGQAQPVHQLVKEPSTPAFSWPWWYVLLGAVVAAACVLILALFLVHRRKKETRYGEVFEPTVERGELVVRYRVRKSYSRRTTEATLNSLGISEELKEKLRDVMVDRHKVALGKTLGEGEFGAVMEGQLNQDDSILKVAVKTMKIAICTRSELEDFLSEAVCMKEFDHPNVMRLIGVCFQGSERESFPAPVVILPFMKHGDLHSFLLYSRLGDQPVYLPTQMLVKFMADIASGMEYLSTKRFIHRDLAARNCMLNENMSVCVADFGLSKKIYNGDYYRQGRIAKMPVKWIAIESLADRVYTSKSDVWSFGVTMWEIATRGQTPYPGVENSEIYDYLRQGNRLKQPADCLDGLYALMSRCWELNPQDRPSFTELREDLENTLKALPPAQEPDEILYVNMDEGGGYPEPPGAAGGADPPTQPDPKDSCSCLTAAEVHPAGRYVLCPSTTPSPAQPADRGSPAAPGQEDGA
Assay: Phospho-Akt In-Cell Western Assay (inhibition of Axl activity after Axl-antibody cross-linking)
Assay type: cell-based
Settings: inhibition of Axl activity; Table 1, compounds of formula (Ia); read-out: IC50
In short: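 Phospho-Akt was detected in formaldehyde-fixed cells by in-cell immunostaining with HRP chemiluminescence. Before fixation, HeLa cells kept 24 h in low-serum medium containing 500 ng/mL Axl/Fc received compound for 1 h at 37 °C, followed by 5-min Axl activation through antibody clustering.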

Row | SMILES | pIC50
1 | Nc1nc(Nc2ccc(C=CCN3CCCC3)cc2)nn1-c1cc2c(nn1)-c1ccccc1CCC2 [Compound 199, 1-(6,7-dihydro-5H-benzo[6,7]cyclohepta[1,2-c]pyridazin-3-yl)-N^3-(4-(pyrrolidin-1-ylprop-1-enyl)phenyl)-1H-1,2,4-triazole-3,5-diamine] | > 6.00
2 | CN(C)C1CCN(CC=Cc2ccc(Nc3nc(N)n(-c4cc5c(nn4)-c4ccccc4CCC5)n3)cc2)C1 (centres unmarked) [Compound 200, 1-(6,7-dihydro-5H-benzo[6,7]cyclohepta[1,2-c]pyridazin-3-yl)-N^3-(4-(3-dimethylaminopyrrolidin-1-ylprop-1-enyl)phenyl)-1H-1,2,4-triazole-3,5-diamine] | > 6.00
3 | CCN(CC)C1CCN(CC=Cc2ccc(Nc3nc(N)n(-c4cc5c(nn4)-c4ccccc4CCC5)n3)cc2)C1 (centres unmarked) [Compound 201, 1-(6,7-dihydro-5H-benzo[6,7]cyclohepta[1,2-c]pyridazin-3-yl)-N^3-(4-(3-diethylaminopyrrolidin-1-ylprop-1-enyl)phenyl)-1H-1,2,4-triazole-3,5-diamine] | > 6.00
4 | C[C@H]1CN(c2ccc(Nc3nc(N)n(-c4cc5c(nn4)-c4ccccc4CCC5)n3)cn2)CCN1CC1CC1 [Compound 202, 1-(6,7-dihydro-5H-benzo[6,7]cyclohepta[1,2-c]pyridazin-3-yl)-N^3-(2-(3-(S)-methyl-4-cyclopropylmethylpiperazin-1-yl)pyridine-5-yl)-1H-1,2,4-triazole-3,5-diamine] | > 6.00
5 | Nc1nc(Nc2ccc(C=CCN3CCC(N4CCCC4)CC3)cc2)nn1-c1cc2c(nn1)-c1ccccc1CCC2 [Compound 203, 1-(6,7-dihydro-5H-benzo[6,7]cyclohepta[1,2-c]pyridazin-3-yl)-N^3-(4-(4-pyrrolidin-1-ylpiperidin-1-ylprop-1-enyl)phenyl)-1H-1,2,4-triazole-3,5-diamine] | > 6.00
6 | CN1CCN(CC=Cc2ccc(Nc3nc(N)n(-c4cc5c(nn4)-c4ccccc4CCC5)n3)cc2)CC1 [Compound 204, 1-(6,7-dihydro-5H-benzo[6,7]cyclohepta[1,2-c]pyridazin-3-yl)-N^3-(4-(4-methylpiperazin-1-ylprop-1-enyl)phenyl)-1H-1,2,4-triazole-3,5-diamine] | > 6.00
7 | CC(C)N1CCN(CC=Cc2ccc(Nc3nc(N)n(-c4cc5c(nn4)-c4ccccc4CCC5)n3)cc2)CC1 [Compound 205, 1-(6,7-dihydro-5H-benzo[6,7]cyclohepta[1,2-c]pyridazin-3-yl)-N^3-(4-(4-isopropylpiperazin-1-ylprop-1-enyl)phenyl)-1H-1,2,4-triazole-3,5-diamine] | > 6.00
8 | Nc1nc(Nc2ccc(C=CCN3CCN(C4CCCC4)CC3)cc2)nn1-c1cc2c(nn1)-c1ccccc1CCC2 [Compound 206, 1-(6,7-dihydro-5H-benzo[6,7]cyclohepta[1,2-c]pyridazin-3-yl)-N^3-(4-(4-cyclopentylpiperazin-1-ylprop-1-enyl)phenyl)-1H-1,2,4-triazole-3,5-diamine] | > 6.00
9 | Nc1nc(Nc2ccc(C=CCN3CCOCC3)cc2)nn1-c1cc2c(nn1)-c1ccccc1CCC2 [Compound 207, 1-(6,7-dihydro-5H-benzo[6,7]cyclohepta[1,2-c]pyridazin-3-yl)-N^3-(4-(morpholin-4-ylprop-1-enyl)phenyl)-1H-1,2,4-triazole-3,5-diamine] | > 6.00
10 | CCN(CC)CCC1CCCc2ccc(Nc3nc(N)n(-c4cc5c(nn4)-c4ccccc4CCC5)n3)cc2C1O (centres unmarked) [Compound 208, 1-(6,7-dihydro-5H-benzo[6,7]cyclohepta[1,2-c]pyridazin-3-yl)-N^3-(8-diethylaminoethyl-9-hydroxy-6,7,8,9-tetrahydro-5H-benzo[7]annulene-2-yl)-1H-1,2,4-triazole-3,5-diamine] | 5.00 to 6.00
11 | CN1CCN(c2ccc(Nc3nc(N)n(-c4cc5c(nn4)-c4ccccc4CCC5)n3)cc2F)CC1 [Compound 209, 1-(6,7-dihydro-5H-benzo[6,7]cyclohepta[1,2-c]pyridazin-3-yl)-N^3-(3-fluoro-4-(4-methylpiperazin-1-yl)phenyl)-1H-1,2,4-triazole-3,5-diamine] | > 6.00
12 | CN1CCCC(Oc2ccc(Nc3nc(N)n(-c4cc5c(nn4)-c4ccccc4CCC5)n3)cc2)C1 (centres unmarked) [Compound 210, 1-(6,7-dihydro-5H-benzo[6,7]cyclohepta[1,2-c]pyridazin-3-yl)-N^3-(4-(1-methylpiperidin-3-yl-oxy)phenyl)-1H-1,2,4-triazole-3,5-diamine] | > 6.00
13 | Nc1nc(Nc2ccc(C3CCN(C4CC5CCC4C5)CC3)cc2)nn1-c1cc2c(nn1)-c1ccccc1CCC2 (centres unmarked) [Compound 211, 1-(6,7-dihydro-5H-benzo[6,7]cyclohepta[1,2-c]pyridazin-3-yl)-N^3-(4-(1-bicyclo[2.2.1]heptan-2-yl)-piperidin-4-ylphenyl)-1H-1,2,4-triazole-3,5-diamine] | < 4.70
14 | Nc1nc(Nc2ccc(C3CCN(CC4CC4)CC3)cc2)nn1-c1cc2c(nn1)-c1ccccc1CCC2 [Compound 212, 1-(6,7-dihydro-5H-benzo[6,7]cyclohepta[1,2-c]pyridazin-3-yl)-N^3-(4-(1-cyclopropylmethylpiperidin-4-yl)phenyl)-1H-1,2,4-triazole-3,5-diamine] | > 6.00
15 | Nc1nc(Nc2ccc3c(c2)CNCC3)nn1-c1cc2c(nn1)-c1ccccc1CCC2 [Compound 213, 1-(6,7-dihydro-5H-benzo[6,7]cyclohepta[1,2-c]pyridazin-3-yl)-N^3-(1,2,3,4-tetrahydroisoquinolin-7-yl)-1H-1,2,4-triazole-3,5-diamine] | > 6.00
16 | Nc1nc(Nc2ccc(N3CCN(CC4CC4)CC3)c(F)c2)nn1-c1cc2c(nn1)-c1ccccc1CCC2 [Compound 214, 1-(6,7-dihydro-5H-benzo[6,7]cyclohepta[1,2-c]pyridazin-3-yl)-N^3-(3-fluoro-4-(4-cyclopropylmethylpiperazin-1-yl)phenyl)-1H-1,2,4-triazole-3,5-diamine] | > 6.00
17 | CN1CCC(N2CCc3ccc(Nc4nc(N)n(-c5cc6c(nn5)-c5ccccc5CCC6)n4)cc3C2)CC1 [Compound 215, 1-(6,7-dihydro-5H-benzo[6,7]cyclohepta[1,2-c]pyridazin-3-yl)-N^3-(2-(1-methylpiperidin-4-yl)-1,2,3,4-tetrahydroisoquinolin-7-yl)-1H-1,2,4-triazole-3,5-diamine] | > 6.00
18 | Nc1nc(Nc2ccc3c(c2)CN(CC2CC2)CC3)nn1-c1cc2c(nn1)-c1ccccc1CCC2 [Compound 216, 1-(6,7-dihydro-5H-benzo[6,7]cyclohepta[1,2-c]pyridazin-3-yl)-N^3-(2-(cyclopropylmethyl)-1,2,3,4-tetrahydroisoquinolin-7-yl)-1H-1,2,4-triazole-3,5-diamine] | > 6.00
19 | Nc1nc(Nc2ccc3c(c2)CCC(N2CC[C@H](F)C2)CC3)nn1-c1cc2c(nn1)-c1ccccc1CCC2 (stereo partly drawn) [Compound 217, 1-(6,7-dihydro-5H-benzo[6,7]cyclohepta[1,2-c]pyridazin-3-yl)-N^3-(7-(3-(S)-fluoropyrrolidin-1-yl)-6,7,8,9-tetrahydro-5H-benzo[7]annulene-2-yl)-1H-1,2,4-triazole-3,5-diamine] | > 6.00
20 | C[C@H]1CCCN1C1CCc2ccc(Nc3nc(N)n(-c4cc5c(nn4)-c4ccccc4CCC5)n3)cc2CC1 (stereo partly drawn) [Compound 218, 1-(6,7-dihydro-5H-benzo[6,7]cyclohepta[1,2-c]pyridazin-3-yl)-N^3-(7-(2-(S)-methylpyrrolidin-1-yl)-6,7,8,9-tetrahydro-5H-benzo[7]annulene-2-yl)-1H-1,2,4-triazole-3,5-diamine] | > 6.00
21 | Nc1nc(Nc2ccc3c(c2)CCC(N2CC[C@@H](O)C2)CC3)nn1-c1cc2c(nn1)-c1ccccc1CCC2 (stereo partly drawn) [Compound 219, 1-(6,7-dihydro-5H-benzo[6,7]cyclohepta[1,2-c]pyridazin-3-yl)-N^3-(7-(3-(R)-hydroxypyrrolidin-1-yl)-6,7,8,9-tetrahydro-5H-benzo[7]annulene-2-yl)-1H-1,2,4-triazole-3,5-diamine] | > 6.00
22 | C[C@@H]1CCCN1C1CCc2ccc(Nc3nc(N)n(-c4cc5c(nn4)-c4ccccc4CCC5)n3)cc2CC1 (stereo partly drawn) [Compound 220, 1-(6,7-dihydro-5H-benzo[6,7]cyclohepta[1,2-c]pyridazin-3-yl)-N^3-(7-(2-(R)-methylpyrrolidin-1-yl)-6,7,8,9-tetrahydro-5H-benzo[7]annulene-2-yl)-1H-1,2,4-triazole-3,5-diamine] | > 6.00
23 | Nc1nc(Nc2ccc3c(c2)CCC(N2CC[C@H](O)C2)CC3)nn1-c1cc2c(nn1)-c1ccccc1CCC2 (stereo partly drawn) [Compound 221, 1-(6,7-dihydro-5H-benzo[6,7]cyclohepta[1,2-c]pyridazin-3-yl)-N^3-(7-(3-(S)-hydroxypyrrolidin-1-yl)-6,7,8,9-tetrahydro-5H-benzo[7]annulene-2-yl)-1H-1,2,4-triazole-3,5-diamine] | > 6.00
